Measurements published in paper PMC6264390, “Design, Synthesis and Structure-activity Studies of Rhodanine Derivatives as HIV-1 Integrase Inhibitors” (Molecules, 2010).
Like-named read-outs stand apart in the source and are kept apart here.

Columns and labels:
[1] = target: T1, human apurinic/apyrimidinic endonuclease 1 (APE1) (Homo sapiens, UniProt P27695); assay: APE1 inhibition assay; assay type: biochemical
T1 construct: His; made in house
Protocol: (§1) All compounds were dissolved in DMSO to a final stock concentration of 10 mM and stored at −20 °C. Initial screening for IN inhibitory effect was done at 100 μM and dilutions were made in DMSO. Compounds showing at least 50% inhibition at 100 μM were selected for IC50 determinations. γ-[^32P]-ATP was purchased from Perkin Elmer (Waltham, MA, USA). The expression system for wild-type IN was a generous gift of Dr. Robert Craigie, Laboratory of Molecular Biology, NIDDK, NIH (Bethesda, MD, USA). His-tagged APE1 was purified from an expression system kindly provided by Dr. Tom Curran, Department of Developmental Neurobiology, St. Jude Children’s Research Hospital (Memphis, TN, USA).
(§2) 21-mer oligonucleotides used in IN inhibition assay [21top (5’-[…]-3’) and 21bot (5’-ACTGCTAGAGATTTTCCA CAC-3’)] were purchased from Integrated DNA Technologies (Coralville, IA, USA) and purified by UV shadowing on polyacrylamide gel. The oligonucleotides used in APE1 inhibition assay [top strand: 5′-ATTTCACCGGTACG(F)TCTAGAATC CG-3′ containing the tetrahydrofuran synthetic abasic residue (F), and bottom strand: 3′-TAAAGTGG CCATGC(C)AGATCTTAGGC-5′] were purchased from The Midland Certified Reagent Company (Midland, TX, USA). To analyze the extent of 3’-processing and strand transfer with 5’-end labeled substrates, 21top was 5’-end labeled using T4 polynucleotide kinase (Epicentre, Madison, WI, USA) and [γ-^32P]-ATP (Perkin Elmer, Waltham, MA, USA). The kinase was heat-inactivated at 95 °C and 21bot was added in […]. The reaction mixture was allowed to cool slowly to room temperature, and purified through a spin-25 minicolumn (USA Scientific, Ocala, FL, USA) to separate annealed double-stranded oligonucleotide from unincorporated material. The oligonucleotides used in the APE1 inhibition assay were labeled using a similar protocol.
APE1 inhibition assay was performed as previously described. To determine the extent of endonucleolytic cleavage of the abasic residue, the test compounds, diluted in DMSO, were preincubated with recombinant APE1 at a final concentration of 0.05 nM in the reaction buffer [50 mM NaCl, 1 mM HEPES, pH 7.5, 50 μM EDTA, 50 μM dithiothreitol, 10% glycerol (w/v), 7.5 mM MnCl2, 0.1 mg mL‑1 bovine serum albumin, 10 mM 2-mercaptoethanol, 10% DMSO, and 25 mM MOPS, pH 7.2] at 30 °C for 10 min. Following preincubation, 200 nM of the 5′-end ^32P-labeled linear oligonucleotide substrate was added, and incubated for an additional 10 minutes. Reactions were quenched by the addition of an equal volume (16 μL) of loading dye (98% deionized formamide, 10 mM EDTA, 0.025% xylene cyanol, and 0.025% bromophenol blue). An aliquot (5 μL) was electrophoresed on a denaturing 20% polyacrylamide gel (0.09 M tris-borate pH 8.3, 2 mM EDTA, 20% acrylamide, 8 M urea). The gels were dried, exposed in a PhosphorImager cassette and analyzed using a Typhoon 8610 Variable Mode Imager (Amersham Biosciences). Quantification of enzyme inhibition was done using Image Quant 5.2 software. The percent inhibition (% I) was calculated using the following equation: %I = 100 × [1 − (D − C) / (N − C)] where C, N, and D are the fractions of 26-mer substrate converted to 13-mer incision products (or integration products) for DNA alone, DNA plus APE1, and DNA, APE1 plus test compound, respectively. IC50 values were determined by plotting the logarithm of compound concentration as a function of %I to obtain the concentration that produced 50% inhibition. An optimum concentration of APE1 enzyme, at which there is complete conversion of the synthetic abasic-site containing oligonucleotide substrate to its cleaved product without subsequent exonuclease activity, was used in the assay.

HIV-1 IN = target: T2, HIV-1 IN (Human immunodeficiency virus type 1 group M subtype B, UniProt P12497); assay: In vitro IN inhibition assay (3’-processing and strand transfer); assay type: biochemical; conditions: Mn2+ cofactor (7.5 mM MnCl2)
T2 construct: pre-incubated with purified recombinant IN (at a final concentration of 200 nM); made in house
Protocol: as §1, §2
To determine the extent of 3’-processing and strand transfer, the test compounds, diluted in DMSO, were pre-incubated with purified recombinant IN (at a final concentration of 200 nM) in the reaction buffer [50 mM NaCl, 1 mM HEPES (pH 7.5), 50 μM EDTA, 50 μM dithiothreitol, 10% glycerol (w/v), 7.5 mM MnCl2, 0.1 mg mL–1 bovine serum albumin, 10 mM 2-mercaptoethanol, 10% dimethyl sulfoxide, and 25 mM MOPS (pH 7.2)] at 30 °C for 30 min. For Mg^2+ assay, 7.5 mM MgCl2 was substituted for MnCl2 and an optimal concentration of PEG was included in the reaction buffer. Following the pre-incubation, 20 nM of the 5’-end ^32P-labeled linear oligonucleotide substrate was added to the reaction mixture and incubated for an additional 1 h. Reactions were quenched by addition of 50X loading dye (98% deionized formamide, 10 mM EDTA, 0.025% xylene cyanol, and 0.025 % bromophenol blue). An aliquot was subjected to electrophoresis on a denaturing polyacrylamide gel (0.09 M tris–borate, pH 8.3, 2 mM EDTA, 20% acrylamide, 8M urea). Gels were dried under vacuum, exposed in a PhosphorImager cassette and visualized with a Typhoon 8610 Variable Mode Imager (Amersham Biosciences). Quantification was done with Image Quant 5.2 software. Percent inhibition (%I) was calculated using the following equation: %I = 100 × [1 − (D − C) / (N − C)] where C, N, and D are the fractions of 21-mer substrate converted into 19-mer (product of 3’-processing) or strand-transfer products for DNA alone, DNA plus IN, and DNA, IN plus test compound, respectively. IC50 values were determined by plotting the logarithm of test compound concentrations as a function of %I to obtain the concentration that produced 50% inhibition.

[2] = read-out: Inhibition of APE1 catalytic activity IC50
[3] = read-out: Inhibition of IN catalytic activity IC50, 3’-Processing
[4] = read-out: Inhibition of IN catalytic activity IC50, Strand Transfer

T1 sequence (P27695 whole entry): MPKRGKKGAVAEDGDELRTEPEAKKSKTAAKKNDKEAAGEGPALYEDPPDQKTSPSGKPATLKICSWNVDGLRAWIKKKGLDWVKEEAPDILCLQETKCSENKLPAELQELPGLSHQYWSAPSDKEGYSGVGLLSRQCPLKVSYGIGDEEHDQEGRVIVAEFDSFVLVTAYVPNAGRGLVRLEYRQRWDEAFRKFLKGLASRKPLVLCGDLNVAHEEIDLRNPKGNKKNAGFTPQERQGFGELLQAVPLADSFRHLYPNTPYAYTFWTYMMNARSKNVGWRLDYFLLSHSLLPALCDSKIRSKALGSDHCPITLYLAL

For `Cc1ccc(C(=O)C=C2SC(=S)N(NC(=S)C(=O)Nc3ccccc3)C2=O)cc1` [Compound 11, 2-{5-[2-(4-Methylphenyl)-2-oxoethylidene]-4-oxo-2-thioxo-1,3-thiazolidin-3-yl}amino-N-phenyl-2-thioxoacetamide], the melting point was 147 to 148 °C, the IC50 [1, 2] was > 100 µM and the IC50 (HIV-1 IN; [3]) was 58 ± 4 µM. For the same compound, the IC50 (HIV-1 IN; [4]) was 20 ± 6 µM.
Work on `O=C(Nc1ccc(F)cc1)C(=S)NN1C(=O)C(=Cc2ccc([N+](=O)[O-])o2)SC1=S` [Compound 12, N-(4-fluorophenyl)-2-{5-[(5-nitro-2-furyl)methylene]-4-oxo-2-thioxo-1,3-thiazolidin-3-yl}amino-2-thioxoacetamide] yielded a melting point of 155 to 156 °C, an IC50 [1, 2] of 89 ± 13 µM and an IC50 (HIV-1 IN; [3]) of 100 µM. The IC50 (HIV-1 IN; [4]) was 93 µM.
For `O=C(Nc1cccc([N+](=O)[O-])c1)C(=S)NN1C(=O)C(=Cc2ccc([N+](=O)[O-])o2)SC1=S` [Compound 14, 2-{-5-[(5-Nitro-2-furyl)methylene]-4-oxo-2-thioxo-1,3-thiazolidin-3-yl}amino-N-(3-nitrophenyl)-2-thioxoacetamide], the melting point was 152 to 153 °C, the IC50 [1] was > 100 µM and the IC50 (HIV-1 IN; [3]) was 58 µM. It also gave an IC50 (HIV-1 IN; [4]) of 58 µM.
With `O=C(Nc1cc(C(F)(F)F)cc(C(F)(F)F)c1)C(=S)NN1C(=O)C(=Cc2ccc([N+](=O)[O-])o2)SC1=S` [Compound 16, N-[3,5-bis(trifluoromethyl)phenyl]-2-{5-[(5-nitro-2-furyl)methylene]-4-oxo-2-thioxo-1,3-thiazolidin-3-yl}amino-2-thioxoacetamide] the melting point was 195 to 196 °C, the IC50 [1, 2] was > 100 µM and the IC50 (HIV-1 IN; [3]) was > 100 µM. It also gave an IC50 (HIV-1 IN; [4]) of 74 ± 20 µM.
In the case of `COc1ccc(NC(=O)C(=S)NN2C(=O)C(=Cc3ccc([N+](=O)[O-])o3)SC2=S)cc1OC` [Compound 18, N-(3,4-dimethoxyphenyl)-2-{5-[(5-nitro-2-furyl)methylene]-4-oxo-2-thioxo-1,3-thiazolidin-3-yl}amino-2-thioxoacetamide], the melting point is reported as 156 to 157 °C, the IC50 [1, 2] is reported as > 100 µM and the IC50 (HIV-1 IN; [3]) is reported as 34 ± 10 µM. The IC50 (HIV-1 IN; [4]) was 14 ± 5 µM.
In the case of `COc1cc(NC(=O)C(=S)NN2C(=O)C(=Cc3ccc([N+](=O)[O-])o3)SC2=S)cc(OC)c1OC` [Compound 19, 2-{5-[(5-Nitro-2-furyl)methylene]-4-oxo-2-thioxo-1,3-thiazolidin-3-yl}amino-2-thioxo-N-(3,4,5-tri-methoxyphenyl)acetamide], the melting point is reported as 201 to 202 °C, the IC50 [1, 2] is reported as > 100 µM and the IC50 (HIV-1 IN; [3]) is reported as 40 ± 28 µM. For the same compound, the IC50 (HIV-1 IN; [4]) was 25 ± 11 µM.
For `CCOc1cc(-n2cnnn2)c(OCC)cc1NC(=O)C(=S)NN1C(=O)C(=Cc2ccc([N+](=O)[O-])o2)SC1=S` [Compound 20, N-[2,5-diethoxy-4-(1H-tetrazol-1-yl)phenyl]-2-{5-[(5-nitro-2-furyl)methylene]-4-oxo-2-thioxo-1,3-thiazolidin-3-yl}amino-2-thioxoacetamide], the melting point was 136 to 138 °C, the IC50 [1, 2] was > 100 µM and the IC50 (HIV-1 IN; [3]) was > 100 µM. It also gave an IC50 (HIV-1 IN; [4]) of 85 ± 21 µM.
In the case of `Cc1cc(NC(=O)C(=S)NN2C(=O)/C(=C\c3ccc([N+](=O)[O-])o3)SC2=S)ccc1-n1cnnn1` [Compound 21, N-[3-methyl-4-(1H-tetrazol-1-yl)phenyl]-2-{5-[(5-nitro-2-furyl)methylene]-4-oxo-2-thioxo-1,3-thia-zolidin-3-yl}amino-2-thioxoacetamide], the melting point is reported as 161 to 162 °C, the IC50 [1, 2] is reported as > 100 µM and the IC50 (HIV-1 IN; [3]) is reported as > 100 µM. The IC50 (HIV-1 IN; [4]) was > 100 µM.
For `COc1cc(C=C2SC(=S)N(NC(=S)C(=O)Nc3cc(OC)c(OC)c(OC)c3)C2=O)cc(OC)c1OC` [Compound 22, 2-{[4-Oxo-2-thioxo-5-(3,4,5-trimethoxybenzylidene)-1,3-thiazolidin-3-yl]amino}-2-thioxo-N-(3,4,5-tri-methoxyphenyl)acetamide], the melting point was 196 to 197 °C, the IC50 [1, 2] was > 100 µM and the IC50 (HIV-1 IN; [3]) was > 100 µM. The IC50 (HIV-1 IN; [4]) was 90 µM.
With `CCOc1cc(-n2cnnn2)c(OCC)cc1NC(=O)C(=S)NN1C(=O)C(=Cc2cc(OC)c(OC)c(OC)c2)SC1=S` [Compound 23, N-[2,5-diethoxy-4-(1H-tetrazol-1-yl)phenyl]-2-{[4-oxo-2-thioxo-5-(3,4,5-trimethoxybenzylidene)-1,3-thiazolidin-3-yl]amino}-2-thioxoacetamide] the melting point was 158 to 159 °C, the IC50 [1, 2] was 83 µM and the IC50 (HIV-1 IN; [3]) was > 100 µM. For the same compound, the IC50 (HIV-1 IN; [4]) was > 100 µM.
In the case of `COc1cc(C=C2SC(=S)N(NC(=S)C(=O)Nc3ccc(-n4cnnn4)c(C)c3)C2=O)cc(OC)c1OC` [Compound 24, N-[3-methyl-4-(1H-tetrazol-1-yl)phenyl]-2-{[4-oxo-2-thioxo-5-(3,4,5-trimethoxybenzylidene)-1,3-thiazolidin-3-yl]amino}-2-thioxoacetamide], the melting point is reported as 173 to 174 °C, the IC50 [1, 2] is reported as > 100 µM and the IC50 (HIV-1 IN; [3]) is reported as > 100 µM. For the same compound, the IC50 (HIV-1 IN; [4]) was > 100 µM.
For `COc1cc(C=C2SC(=S)N(NC(=S)C(=O)Nc3cccc(C(F)(F)F)c3)C2=O)cc(OC)c1OC` [Compound 25, 2-{[4-Oxo-2-thioxo-5-(3,4,5-trimethoxybenzylidene)-1,3-thiazolidin-3-yl]amino}-2-thioxo-N-[3-(tri-fluoromethyl)phenyl]acetamide], the melting point was 160 to 161 °C, the IC50 [1, 2] was > 100 µM and the IC50 (HIV-1 IN; [3]) was > 100 µM. For the same compound, the IC50 (HIV-1 IN; [4]) was > 100 µM.
In the case of `COc1cc(NC(=O)C(=S)NN2C(=O)C(=Cc3cc(Cl)ccc3O)SC2=S)cc(OC)c1OC` [Compound 27, 2-{[5-(5-Chloro-2-hydroxybenzylidene)-4-oxo-2-thioxo-1,3-thiazolidin-3-yl]amino}-2-thioxo-N-(3,4,5-trimethoxyphenyl)acetamide], the melting point is reported as 216 to 217 °C, the IC50 [1, 2] is reported as > 100 µM and the IC50 (HIV-1 IN; [3]) is reported as 83 ± 25 µM. For the same compound, the IC50 (HIV-1 IN; [4]) was 20 µM.
In the case of `COc1cc(NC(=O)C(=S)NN2C(=O)C(=Cc3cc(Br)ccc3O)SC2=S)cc(OC)c1OC` [Compound 28, 2-{[5-(5-Bromo-2-hydroxybenzylidene)-4-oxo-2-thioxo-1,3-thiazolidin-3-yl]amino}-2-thioxo-N-(3,4,5-trimethoxyphenyl)acetamide], the melting point is reported as 208 to 209 °C, the IC50 [1, 2] is reported as > 100 µM and the IC50 (HIV-1 IN; [3]) is reported as 44 ± 13 µM. It also gave an IC50 (HIV-1 IN; [4]) of 30 ± 19 µM.
